Measurements as given in paper PMC11701928, “Co-crystal structure of Helicobacter pylori biotin protein ligase with biotinyl-5-ATP” (Acta Crystallographica Section F: Structural Biology …, 2025).

Target: T1, HpBPL (Helicobacter pylori, UniProt B5Z8D8)
T1 construct: gene HPG27_1085
T1 sequence (B5Z8D8 1-212): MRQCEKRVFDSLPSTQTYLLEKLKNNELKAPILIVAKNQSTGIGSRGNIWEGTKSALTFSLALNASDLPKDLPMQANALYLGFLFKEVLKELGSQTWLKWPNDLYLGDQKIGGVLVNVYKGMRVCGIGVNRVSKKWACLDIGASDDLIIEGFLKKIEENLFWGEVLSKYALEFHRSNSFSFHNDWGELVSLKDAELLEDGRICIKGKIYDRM
Assay: turnover to biotinyl-5-ATP seen in crystal structure
Type: biochemical
Settings: 10 min

Compound | turnover to biotinyl-5-ATP seen in crystal structure (6 mM ATP with 6 mM biotin and 6 mM MgCl2, 25 °C) | turnover to biotinyl-5-ATP seen in crystal structure (6 mM biotin with 6 mM ATP and 6 mM MgCl2, 25 °C)
Nc1ncnc2c1ncn2[C@@H]1O[C@H](COP(=O)(O)OP(=O)(O)OP(=O)(O)O)[C@@H](O)[C@H]1O [ATP] | catalytically active and generates biotinyl-5-ATP upon incubation with MgCl2, ATP and biotin | 
O=C(O)CCCC[C@@H]1SC[C@@H]2NC(=O)N[C@@H]21 [biotin] |  | catalytically active and generates biotinyl-5-ATP upon incubation with MgCl2, ATP and biotin
